Data set [1] concerns form-deprivation myopia. Kind of data set: Form-deprivation myopia model (FDM) in guinea pigs: interocular differences in refraction and eye axis parameters. Conditions: for Difference in Refraction (Refraction, D) Mean / Difference in Axial Length (AL, mm) Mean / Difference in Vitreous Chamber Depth (VCD, mm) Mean: FD + 0.94% lipoic acid, experimental eye vs contralateral eye; for Difference in Refraction (Refraction, D) Mean: periocular subconjunctival injection 100 µL once daily; for Difference in Axial Length (AL, mm) Mean / Difference in Vitreous Chamber Depth (VCD, mm) Mean: subconjunctival injection once daily; for myopia inhibition rate: 0.94% lipoic acid compared to the vehicle control group. The text has this: Form-deprivation and lens-induced myopia models in guinea pigs are classic and recognized myopic animal models in the art, and may be used for evaluating efficacy and safety of myopia treatment drugs, and methods for establishing such models are well-known to those skilled in the art. For animal modeling and administration routes in the present application, reference is made to previously published scientific documents by the research group (Sen Zhang, Invest Ophthalmol Vis Sci. 2019 Jul 1; 60(8):3074-3083.; Miaozhen Pan, Exp Eye Res. 2021 Jan; 202:108332.).
After individuals with significant eye diseases or abnormalities were eliminated from three-week-old tricolor guinea pigs, by detecting refraction (using an infrared eccentric photorefraction device) and the eye axis (using A-scan ultrasonography), animals with refractive power between 3 and 8 diopters (D), an interocular difference in refraction not exceeding 2 D, and interocular differences in vitreous chamber depth and axial length not exceeding 0.05 mm were selected. These animals were randomly divided into two groups: an FD + vehicle control group (1% DMSO + 49% PEG300 + 50% normal saline, by volume) and an FD + 0.94% lipoic acid drug treatment group. At 8:00 AM on day 1 of the experiment, form deprivation was induced in the guinea pigs using a mask method, where the right eye (experimental eye) was occluded and the left eye was left unoccluded (contralateral eye). The FD induction was maintained throughout the entire period of the lipoic acid efficacy experiment, with the hoods only briefly removed for drug administration or ocular examination (for example, refraction detection). Starting on the first day of the efficacy experiment, position of the hood was checked daily at 8:00 AM, 12:00 PM, and 7:00 PM, as well as prior to administration. Individuals with hoods fell off more than three times during the administration period were excluded. Beginning on the day of modeling, the corresponding vehicle or drug (lipoic acid formulation) was administrated to the experimental eye daily between 9:00 AM and 10:00 AM via periocular subconjunctival injection at an injection volume of 100 µL. The vehicle or drug was administrated once daily for two consecutive weeks. Interocular refraction and eye axis parameters of all subjects were measured at the start of the efficacy experiment, 1 week after administration, and after the final administration. All data collection and processing methods were the same as those previously published by the laboratory of the inventors (Pan M, Zhao F, Xie B, et al. Dietary omega-3 polyunsaturated fatty acids are protective for myopia. Proc Natl Acad Sci U S A 2021 Oct 26; 118(43):e2104689118). Statistical basis was the difference between the experimental eye and the contralateral eye in the same subject.
Utilizing the same efficacy evaluation system for myopia treatment in the guinea pig form-deprivation model as described in Example 2, the prevention and control effects of mexidol, pyridoxol, astaxanthin, and blueberry fruit extract on myopia were compared against lipoic acid. The administration route was periocular subconjunctival injection.
The same efficacy evaluation system for myopia treatment in the guinea pig form-deprivation model as described in Example 2 was utilized to evaluate the myopia treatment effects of blueberry fruit extract + lipoic acid compound formulations at different prescription ratios. The administration route was periocular subconjunctival injection.

Data set [2] has as its system form-deprivation myopia. Kind of data set: Choroidal thickness (OCT) in the guinea pig form-deprivation model. In kind it is in vivo, guinea pigs. Conditions: animals of Example 2 (0.94% lipoic acid), 30 to 60 minutes after the final administration. Here is the method: Choroidal thickness of all animal subjects in Example 2 were detected using Spectralis HRA + OCT (Heidelberg Engineering, Heidelberg, Germany) for 30 minutes to 60 minutes after the final administration (of either the vehicle or lipoic acid).
After completion of the experiment, the choroidal thickness was detected in animals in the two control groups and the 0.5% lipoic acid choline ester eye drop administration group in Example 6 (some animals died during the measurement due to reasons unrelated to the test drugs, so the corresponding samples were eliminated).

Data set [3] concerns age-related macular degeneration. The conditions noted are these: oral administration; Kim et al. 2020; cited from earlier work.

For the molecule `O=C(O)CCCCC1CCSS1` (stereo not drawn) [Lipoic acid, alpha-lipoic acid], the results for the “Difference in Refraction (Refraction, D) Mean” value in the data set with form-deprivation myopia [1] (1 Week), with form-deprivation myopia [1] (2 Weeks) and in the data set with form-deprivation myopia [1] (Baseline) were -2.2 D, -4.673 D and -0.04545 D, respectively. In addition, the “Difference in Axial Length (AL, mm) Mean” value with form-deprivation myopia [1] (1 Week) is listed as 0.04364 mm; in the data set with form-deprivation myopia [1] (1 Week, listed as lipoic acid), 0.04364 + 0.03295 mm; in the data set on form-deprivation myopia [1] (2 Weeks), 0.06364 mm; in the data set on form-deprivation myopia [1] (2 Weeks, listed as lipoic acid), 0.06364 ± 0.03722 mm; with form-deprivation myopia [1] (Baseline) it was -0.004545 mm. Also, the “Difference in Vitreous Chamber Depth (VCD, mm) Mean” value is 0.0009091 mm with form-deprivation myopia [1] (1 Week); 0.0009091 + 0.027 mm with form-deprivation myopia [1] (1 Week, listed as lipoic acid); 0.08545 mm in the data set on form-deprivation myopia [1] (2 Weeks); 0.08545 + 0.02067 mm in the data set on form-deprivation myopia [1] (2 Weeks, listed as lipoic acid); 0.09273 mm with form-deprivation myopia [1] (Baseline). Besides, the “axial elongation and increase in vitreous chamber depth, FIG. 5” value in the data set on form-deprivation myopia [1] (Example 4, 0.3% R-alpha lipoic acid, subconjunctival injection, 1 and 2 weeks) was “could effectively inhibit the axial elongation and the increase in vitreous chamber depth”. The “refraction (interocular difference), FIG. 4” value with form-deprivation myopia [1] (Example 4, week 1 detection, 0.3% R-alpha lipoic acid (R-LA), periocular subconjunctival injection, compared with the other test drugs) is “optimal myopia treatment effect”. Besides, the “anterior chamber depth, lens thickness, corneal curvature” value in the data set with form-deprivation myopia [1] (guinea pig, in vivo) is reported as “unaffected by the drug”. For the same molecule, the “mydriatic effect (pupil diameter)” value in the data set on form-deprivation myopia [1] (guinea pig, in vivo) was “No mydriatic effect was observed”. The “toxic reactions, ocular irritations, significant ocular abnormalities” value in the data set on form-deprivation myopia [1] (guinea pig, in vivo) is recorded as “no any toxic reactions, ocular irritations, or significant ocular abnormalities were observed”. Moreover, the values for the myopia inhibition rate in the data set on form-deprivation myopia [1] (week 1 of treatment) and in the data set with form-deprivation myopia [1] (week 2 of treatment) were 42.4% and 21.1%, respectively. In addition, the “choroidal thickness, experimental eye vs contralateral eye” value in the data set on form-deprivation myopia [2] was “could significantly inhibit the decrease in choroidal thickness in myopic eyes”. Moreover, the “efficacy, clinical endpoint” value in data set [3] is given as “did not reach a clinical endpoint”.

The values are drawn from EP4721736A1, “PHARMACEUTICAL COMPOSITION FOR EFFECTIVELY DELAYING AND TREATING MYOPIA” (priority 2023, dated 2024).
